Article PMC6130518, “Investigation of the effective components of the flowers of Trollius chinensis from the perspectives of intestinal bacterial transformation and intestinal absorption” (Pharmaceutical Biology, 2017)
“Also recorded” adds a separate entry of the source. Like-named read-outs stand apart in the source and are kept apart here.

Legend:
[1] = test system: activated intestinal bacteria; test: Intestinal bacterial transformation of AEOF; type: in vitro ADME, human; conditions: for After transformed by intestinal bacteria / Before transformed by intestinal bacteria: content in the extract; for transformation by intestinal bacteria (in words): in AEOF 15.0, 30.0, 60.0 mg/mL, up to 72 h, single person derived- or multiple people-derived intestinal bacteria
Experimental: Each 3 g of fresh feces from 3 healthy men and 3 healthy women of 23–25 years old was suspended in 200 mL of general anaerobic medium (GAM, including L-cystine hydrochloride, soluble starch, pepsin, tryptone, peptone, soy peptone, serum powder, yeast extract, beef extract, and beef liver extract powder purchased from Beijing Aoboxing Biotechnology Co., Ltd, Beijing, China) broth prepared as per a literature (Yang & Xu [2011]), respectively, and cultured in an anaerobic incubator (Shanghai Cimomedical Appliance Co., Ltd., Shanghai, China) at 37 °C for 24 h (Tsuchihashi et al. [2009]). […] Each 100 μL of the activated intestinal bacteria from the 6 volunteers were added into 11.4 mL of GAM, mixed adequately, and incubated in the same conditions as previously to obtain the mixture of activated intestinal bacteria. About 0.4513, 0.9026, and 1.8052 g of AEOF were dissolved in 30 mL of GAM on a super clean bench (Beijing Great Wall Air Purification Co. Ltd., Beijing, China), respectively, to generate the experimental groups. Then, the triplicate GAM containing AEOF was divided into 24 screw-cap test tubes, and each screw-cap test tube had 3 mL of the GAM and 100 μL of the activated intestinal bacteria and the mixture of activated intestinal bacteria, respectively. They were incubated under the same condition, and the test tubes of each concentration in triplicate were removed from the anaerobic incubator at 0, 2, 4, 6, 12, 24, 48, and 72 h. About 100 μL of the bacterial suspension was replaced with GAM to obtain the control group. The GAM absent of the AEOF was used as the blank group. […] About 300 μL of the supernatant was collected, filtered through a 0.45 μm membrane filter, and stored at −20 °C before HPLC analysis.
The HPLC analysis was performed using a Waters 1500 series (Waters Business Operations, Milford, MA) equipped with a 1525 binary HPLC pump, an on-line degasser, a manual injector and a 2489 UV/Visible detector. […] The temperature was set at 35 °C and the UV detecting wavelengths were 254 and 365 nm. The mobile phase consisted of acetonitrile (HPLC grade, Fisher Co., Pittsburgh, PA) (A) and 1.0% acetic acid (Beijing Chemical Works, Beijing, China) in purified water (v/v) (B), and the gradient elution program was as follows: 5–10% A (0–5 min), 10–20% A (5–10 min), 20–25% A (10–22 min), 25–40% A (22–35 min), 40–50% A (35–40 min), and 50–5% A (40–42 min) at a flow rate of 1.0 mL/min. The volume injected was 5 μL.

[2] = previous study, cited from earlier work
[3] = Absorption experiment with everted gut sacs; conditions: Sprague-Dawley, rat
[4] = test system: everted gut sacs (jejunum); test: Absorption experiment with everted gut sacs; conditions: for transport percentage: Everted gut sacs, AP→BL; for After transported with everted gut sacs: intestinal bacterial transformed AEOF
[5] = Transport experiment with Caco-2 cell monolayers; conditions: human, Caco-2, Papp, Caco-2 cell monolayers; for Papp at 180 min, 10 mg/mL: extract 10 mg/mL; for Papp at 180 min, 20 mg/mL: extract 20 mg/mL; for Papp at 180 min, 30 mg/mL: extract 30 mg/mL
Experimental: (§1) The Caco-2 cells were cultured in the culture medium consisting of Dulbecco’s Modified Eagle Medium (DMEM, Gibco Inc., Grand Island, CA)-fetal bovine serum (FBS, Gibco Inc., Grand Island, CA)-nonessential amino acids (NEAA, Corning Costar, Cambridge, MA)-‘penicillin-streptomycin’ (Corning Costar, Cambridge, MA) (100:10:1:1, v/v/v/v) in 25 cm^2 flasks, which were incubated in 5% CO2 and constant temperature (37 °C) and humidity in the incubator. The culture medium was replaced every 2 or 3 days, and the cells were split 1:2 or 1:3 to conduct passage when they reached 80% confluence.
(§2) About 1.5 mL of the culture medium was added into the basal (BL) side of each well of the 12-well Transwell plates (insert diameter 12 mm, pore size 3.0 μm, membrane growth area 1.12 cm^2, Corning Costar, Cambridge, MA), and 0.5 mL of the Caco-2 cell suspension at the density of 2.0 × 10^5 cells/mL was seeded into the apical (AP) side of each insert. The cells were incubated in 5% CO2 and constant temperature (37 °C) and humidity in the incubator. The culture medium in both AP and BL sides was replaced every other day in the first week, then that in AP side was replaced every day and that in BL side was replaced every other day. The cells would differentiate and form a confluent monolayer. The integrity and viability of the cell monolayers were evaluated by measuring transepithelial electrical resistance (TEER) values in the culture medium at 37 °C using a Millicell®-ERS system (Millipore Corp., Bedford, MA), and only the inserts with the TEER above 600 Ω/cm^2 on day 21 were selected to perform the transport experiment.
(§3) About 200 μL of the solution in the receiving chambers was collected at 30, 60, 90, 120, 150, and 180 min, respectively, and then the same volume of HBSS was added. All samples were stored at −20 °C and filtered through a 0.45 μm membrane filter for HPLC analysis.
(§4) The HPLC conditions used for the analysis of the intestinal bacterial transformed AEOF before and after transport experiment was the same as above.
(§5) The transport percentage (%) was calculated using the formula transport percentage (%) = dQ/(C0 × V) × 100, wherein, V (mL) represented the volume of the donor compartment.

[6] = test system: Caco-2 cell monolayers; test: Transport experiment with Caco-2 cell monolayers; conditions: for transport percentage: Caco-2 cell monolayers; for After transported with Caco-2 cell monolayers: intestinal bacterial transformed AEOF
Experimental: as §1, §2, §3, §4, §5

[7] = first of three lines per compound (lowest extract concentration)
[8] = first of three lines per compound (lowest extract concentration; AEOF 15, 30, 60 mg/mL)
[9] = second of three lines per compound (middle extract concentration, not given)
[10] = third of three lines per compound (highest extract concentration, not given)
[11] = first of three lines per compound (lowest concentration; 10, 20, 30 mg/mL)
[12] = second of three lines per compound (middle concentration, not given)
[13] = third of three lines per compound (highest concentration, not given)
[14] = ref Liu et al. [2014], Wu et al. [2014]

Row | Compound | After transformed by intestinal bacteria [1, 7] [µg/mL] | Before transformed by intestinal bacteria [1, 8] [µg/mL] | After transformed by intestinal bacteria [1, 9] [µg/mL] | Before transformed by intestinal bacteria [1, 9] [µg/mL] | After transformed by intestinal bacteria [1, 10] [µg/mL] | Before transformed by intestinal bacteria [1, 10] [µg/mL] | transformation by intestinal bacteria (in words) [1] | Papp at 180 min, 10 mg/mL [3] [×10⁻⁶ cm/s] | Papp at 180 min, 20 mg/mL [3] [×10⁻⁶ cm/s] | Papp at 180 min, 30 mg/mL [3] [×10⁻⁶ cm/s] | transport percentage ([4]; extract 10 mg/mL) [%] | transport percentage ([4]; extract 20 mg/mL) [%] | transport percentage ([4]; extract 30 mg/mL) [%] | After transported with everted gut sacs [4, 11] [µg/mL] | After transported with everted gut sacs [4, 12] [µg/mL] | After transported with everted gut sacs [4, 13] [µg/mL] | Papp at 180 min, 10 mg/mL ([5]; AP→BL) [×10⁻⁶ cm/s] | Papp at 180 min, 10 mg/mL ([5]; BL→AP) [×10⁻⁶ cm/s] | Papp at 180 min, 20 mg/mL ([5]; AP→BL) [×10⁻⁶ cm/s] | Papp at 180 min, 20 mg/mL ([5]; BL→AP) [×10⁻⁶ cm/s] | further results
1 | O=c1cc(-c2ccc(O)c(O)c2)oc2c(C3OC(CO)C(O)C(O)C3OC3OC(CO)C(O)C(O)C3O)c(O)cc(O)c12 [2″-O-β-L-galactopyranosylorientin] | 28.06 | 26.86 | 56.34 | 56.18 | 100.57 | 104.39 | not changed | 41.1 ± 2.5 | 22.3 ± 4.1 | 46.7 ± 2.5 | 8.76 | 4.23 | 9.25 | 1.57 | 1.69 | 5.38 | 11.1 ± 0.9 | 21.6 ± 2.4 | 19 ± 0.9 | 34.9 ± 0.9 | transformation by intestinal bacteria (in words) ([1]; listed as 2″-O-β-L-Galactopyranosylorientin): not transformed; absorption mechanism ([2]; ref Liu et al. [2015]): transporter mediated efflux in addition to passive diffusion; Papp at 180 min, 30 mg/mL ([5]; AP→BL): 40.7 ± 4 ×10⁻⁶ cm/s; Papp at 180 min, 30 mg/mL ([5]; BL→AP): 41.7 ± 2.8 ×10⁻⁶ cm/s; transport percentage ([6]; extract 10 mg/mL, AP→BL): 13.41%; transport percentage ([6]; extract 10 mg/mL, BL→AP): 8.72%; transport percentage ([6]; extract 20 mg/mL, AP→BL): 22.93%; transport percentage ([6]; extract 20 mg/mL, BL→AP): 14.08%; transport percentage ([6]; extract 30 mg/mL, AP→BL): 49.29%; transport percentage ([6]; extract 30 mg/mL, BL→AP): 16.83%; After transported with Caco-2 cell monolayers [6, 11]: 0.41 µg/mL; After transported with Caco-2 cell monolayers [6, 12]: 1.44 µg/mL; After transported with Caco-2 cell monolayers [6, 13]: 4.78 µg/mL
2 | O=c1cc(-c2ccc(O)c(O)c2)oc2c([C@@H]3O[C@H](CO)[C@@H](O)[C@H](O)[C@H]3O)c(O)cc(O)c12 [orientin] | 11.83 | 10.27 | 20.38 | 20.33 | 43.42 | 43.87 | not transformed; also recorded: not changed | 21.9 ± 2.4 | 18.5 ± 0.1 | 34 ± 3.4 | 4.67 | 3.50 | 6.75 | 0.32 | 0.49 | 1.04 | 25.3 ± 0.3 | 19.2 ± 1.4 | 13.5 ± 0.2 | 11.8 ± 0.2 | absorption mechanism ([2]; ref Liu et al. [2015]): transporter mediated efflux in addition to passive diffusion; Papp at 180 min, 30 mg/mL ([5]; AP→BL): 19.5 ± 1.4 ×10⁻⁶ cm/s; Papp at 180 min, 30 mg/mL ([5]; BL→AP): 16.3 ± 0.6 ×10⁻⁶ cm/s; transport percentage ([6]; extract 10 mg/mL, AP→BL): 30.53%; transport percentage ([6]; extract 10 mg/mL, BL→AP): 7.73%; transport percentage ([6]; extract 20 mg/mL, AP→BL): 16.39%; transport percentage ([6]; extract 20 mg/mL, BL→AP): 4.76%; transport percentage ([6]; extract 30 mg/mL, AP→BL): 23.54%; transport percentage ([6]; extract 30 mg/mL, BL→AP): 6.56%; After transported with Caco-2 cell monolayers [6, 11]: 0.33 µg/mL; After transported with Caco-2 cell monolayers [6, 12]: 0.35 µg/mL; After transported with Caco-2 cell monolayers [6, 13]: 0.82 µg/mL
3 | COc1cc(C(=O)O)cc(CC=C(C)C)c1O [proglobeflowery acid] | 32.40 | 2.55 | 67.09 | 4.78 | 134.85 | 6.67 | not transformed; also recorded: not changed | 450 ± 11 | 534 ± 14 | 586 ± 8 | 9.60 | 10.58 | 11.61 | 1.95 | 4.95 | 7.74 | 105 ± 4 | 223 ± 16 | 123 ± 26 | 142 ± 5 | absorption mechanism [2, 14]: mainly through passive diffusion; Papp at 180 min, 30 mg/mL ([5]; AP→BL): 181 ± 22 ×10⁻⁶ cm/s; Papp at 180 min, 30 mg/mL ([5]; BL→AP): 105 ± 4 ×10⁻⁶ cm/s; transport percentage ([6]; extract 10 mg/mL, AP→BL): 127.39%; transport percentage ([6]; extract 10 mg/mL, BL→AP): 89.93%; transport percentage ([6]; extract 20 mg/mL, AP→BL): 148.57%; transport percentage ([6]; extract 20 mg/mL, BL→AP): 57.32%; transport percentage ([6]; extract 30 mg/mL, AP→BL): 219.09%; transport percentage ([6]; extract 30 mg/mL, BL→AP): 42.47%; After transported with Caco-2 cell monolayers [6, 11]: 11.11 µg/mL; After transported with Caco-2 cell monolayers [6, 12]: 17.18 µg/mL; After transported with Caco-2 cell monolayers [6, 13]: 23.46 µg/mL
4 | O=C1CC[C@H]2c3cc(O)c(O)cc3CCN12 [trolline] | 22.37 | 22.80 | 36.28 | 35.96 | 71.00 | 73.23 | not transformed; also recorded: not changed | 138 ± 1 | 107 ± 5 | 151 ± 4 | 29.42 | 20.32 | 30.00 | 4.33 | 6.97 | 14.76 | 112 ± 7 | 231 ± 7 | 127 ± 12 | 194 ± 2 | absorption mechanism [2, 14]: an associative mechanism including both active and passive transports; Papp at 180 min, 30 mg/mL ([5]; AP→BL): 107 ± 6 ×10⁻⁶ cm/s; Papp at 180 min, 30 mg/mL ([5]; BL→AP): 184 ± 11 ×10⁻⁶ cm/s; transport percentage ([6]; extract 10 mg/mL, AP→BL): 135.43%; transport percentage ([6]; extract 10 mg/mL, BL→AP): 93.13%; transport percentage ([6]; extract 20 mg/mL, AP→BL): 153.03%; transport percentage ([6]; extract 20 mg/mL, BL→AP): 78.21%; transport percentage ([6]; extract 30 mg/mL, AP→BL): 130.00%; transport percentage ([6]; extract 30 mg/mL, BL→AP): 74.30%; After transported with Caco-2 cell monolayers [6, 11]: 8.10 µg/mL; After transported with Caco-2 cell monolayers [6, 12]: 13.59 µg/mL; After transported with Caco-2 cell monolayers [6, 13]: 19.15 µg/mL
